# Test results: US10988478B1, “Pyrazolo[1,5a]pyrimidine derivatives as IRAK4 modulators” (Genentech, Inc., priority 2015, dated 2021)
# Target: human IRAK4 (Homo sapiens (Human), UniProt Q9NWZ3)
# Assay: IRAK4 kinase inhibition, Transcreener fluorescence polarization ADP assay
# Assay type: biochemical
# Conditions: recombinant full-length His6-IRAK4; 125 uM ATP; 90 min; Ki computed using ATP Km 642 uM
# Protocol: Compounds were assayed for inhibition of human IRAK4 and IRAK1 catalytic activity using recombinant enzyme produced from insect cells. Full-length IRAK4 protein, carrying an N-terminal His6-Tag, was obtained from Life Technologies (Carlsbad, Calif., USA). The IRAK1 construct was produced internally and was comprised of IRAK1 residues Arg194 to Ser712, preceded by an NH2-terminal His6 tag and the coding sequence for glutathione-S-transferase.
# human IRAK4, sequence (Q9NWZ3 whole entry): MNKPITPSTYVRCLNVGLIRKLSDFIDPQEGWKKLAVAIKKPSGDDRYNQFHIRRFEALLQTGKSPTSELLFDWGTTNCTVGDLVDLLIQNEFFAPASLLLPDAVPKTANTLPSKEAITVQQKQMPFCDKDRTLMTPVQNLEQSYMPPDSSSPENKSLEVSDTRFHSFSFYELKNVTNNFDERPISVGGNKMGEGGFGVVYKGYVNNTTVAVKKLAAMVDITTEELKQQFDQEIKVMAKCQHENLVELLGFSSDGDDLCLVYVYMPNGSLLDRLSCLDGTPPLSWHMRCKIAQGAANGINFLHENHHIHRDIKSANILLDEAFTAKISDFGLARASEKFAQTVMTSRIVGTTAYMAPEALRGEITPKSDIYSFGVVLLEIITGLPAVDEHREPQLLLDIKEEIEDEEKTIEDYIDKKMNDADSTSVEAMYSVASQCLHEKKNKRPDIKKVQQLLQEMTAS
row,SMILES,Ki [nM]
1,"CC1(C)CNc2cc(NC(=O)c3cnn4cccnc34)c(N3CCOCC3)cc2O1 [Example 5, N-(2,2-Dimethyl-7-morpholino-3,4-dihydro-2H-benzo[b][1,4]oxazin-6-yl)pyrazolo[1,5-a]pyrimidine-3-carboxamide]",54
2,"CC1(C)Cc2cc(NC(=O)c3cnn4cccnc34)c(-c3cncc(C#N)c3)cc2O1 [Example 405, N-(6-(5-Cyanopyridin-3-yl)-2,2-dimethyl-2,3-dihydrobenzofuran-5-yl)pyrazolo[1,5-a]pyrimidine-3-carboxamide]",520
3,"CC1(C)Cc2cc(NC(=O)c3cnn4cccnc34)c(N3CC[C@]4(CCOC4)C3)cc2O1 (single isomer, unassigned) [Example 223]",72
4,"CN1Cc2cc(NC(=O)c3cnn4cccnc34)c(N3CCOCC3)cc2C1=O [Example 140, N-(2-Methyl-6-morpholino-1-oxoisoindolin-5-yl)pyrazolo[1,5-a]pyrimidine-3-carboxamide]",26
5,"CN1CCc2cc(NC(=O)c3cnn4cccnc34)c(N3CCOCC3)cc2C1=O [Example 401, N-(2-Methyl-7-morpholino-1-oxo-1,2,3,4-tetrahydroisoquinolin-6-yl)pyrazolo[1,5-a]pyrimidine-3-carboxamide]",97
6,"CC1(C)Cc2cc(NC(=O)c3cnn4cccnc34)c(OC[C@H]3CCCN3CC(F)F)cc2O1 [Example 292, (R)—N-(6-((1-(2,2-Difluoroethyl)pyrrolidin-2-yl)methoxy)-2,2-dimethyl-2,3-dihydrobenzofuran-5-yl)pyrazolo[1,5-a]pyrimidine-3-carboxamide]",760
7,"Cn1ccnc1-c1cc2c(cc1NC(=O)c1cnn3cccnc13)CC(C)(C)O2 [Example 406, N-[2,2-Dimethyl-6-(1-methylimidazol-2-yl)-3H-benzofuran-5-yl]pyrazolo[1,5-a]pyrimidine-3-carboxamide]",150
8,"CC1(C)Cc2cc(NC(=O)c3cnn4cccnc34)c(C3CCN(CCO)CC3)cc2O1 [Example 357, N-(6-(1-(2-Hydroxyethyl)piperidin-4-yl)-2,2-dimethyl-2,3-dihydrobenzofuran-5-yl)pyrazolo[1,5-a]pyrimidine-3-carboxamide]",410
9,"CC1(C)Cc2cc(NC(=O)c3cnn4cc(C5CNC5)cnc34)c(N3CCOCC3)cc2O1 [Example 490, 6-(Azetidin-3-yl)-N-(2,2-dimethyl-6-morpholino-3H-benzofuran-5-yl)pyrazolo[1,5-a]pyrimidine-3-carboxamide]",980
10,"CC(C)N1Cc2cc(NC(=O)c3cnn4cccnc34)c(N3CCOCC3)cc2S1(=O)=O [Example 287, N-(2-Isopropyl-6-morpholino-1,1-dioxo-3H-1,2-benzothiazol-5-yl)pyrazolo[1,5-a] pyrimidine-3-carboxamide]",26
11,"CC(C)(O)CN1CCN(c2cc3c(cc2NC(=O)c2cnn4cccnc24)CC(C)(CO)O3)CC1 (stereo not drawn) [Example 151, N-(6-(4-(2-Hydroxy-2-methylpropyl)piperazin-1-yl)-2-(hydroxymethyl)-2-methyl-2,3-dihydrobenzofuran-5-yl)pyrazolo[1,5-a]pyrimidine-3-carboxamide]",72

# Stronger by Ki, values ahead:
row,Ki [nM],SMILES
1,22,"C[C@]1(COC(F)F)Cc2cc(NC(=O)c3cnn4cccnc34)c(N3CCOCC3)cc2O1 [Example 155, (R)—N-(2-((difluoromethoxy)methyl)-2-Methyl-6-morpholino-2,3-dihydrobenzofuran-5-yl)pyrazolo[1,5-a]pyrimidine-3-carboxamide]"
2,18,"CC1(C)Cc2cc(NC(=O)c3cnn4cccnc34)c(N3CCN(CC4CCCO4)CC3)cc2O1 (stereo not drawn) [Example 230, N-(2,2-Dimethyl-6-(4-((tetrahydrofuran-2-yl)methyl)piperazin-1-yl)-2,3-dihydrobenzofuran-5-yl)pyrazolo[1,5-a]pyrimidine-3-carboxamide]"
3,16,"C[C@@]1(CO)Cc2cc(NC(=O)c3cnn4cccnc34)c(N3CCC(F)(F)CC3)cc2O1 [Example 121, (S)—N-(6-(4,4-Difluoropiperidin-1-yl)-2-(hydroxymethyl)-2-methyl-2,3-dihydrobenzofuran-5-yl)pyrazolo[1,5-a]pyrimidine-3-carboxamide]"
4,12,"CN1CCC2(CC1)Cc1cc(NC(=O)c3cnn4cccnc34)c(N3CCOCC3)cc1O2 [Example 152, N-(1′-Methyl-6-morpholino-3H-spiro[benzofuran-2,4′-piperidine]-5-yl)pyrazolo[1,5-a]pyrimidine-3-carboxamide]"
5,9.3,"O=C(Nc1cc2c(cc1N1CCOCC1)O[C@@](CO)(C(F)(F)F)C2)c1cnn2cccnc12 [Example 154, (S)—N-(2-(hydroxymethyl)-6-morpholino-2-(trifluoromethyl)-2,3-dihydrobenzofuran-5-yl)pyrazolo[1,5-a]pyrimidine-3-carboxamide]"
6,9.2,"CC1(C)Cc2cc(NC(=O)c3cnn4cccnc34)c(O[C@H]3CC[C@H](O)CC3)cc2O1 [Example 65, Trans-N-[6-(4-hydroxycyclohexoxy)-2,2-dimethyl-3H-benzofuran-5-yl]pyrazolo[1,5-a]pyrimidine-3-carboxamide]"
7,6.9,"O=C(Nc1cc2c(cc1N1CCOCC1)OC1(CCN(CCF)CC1)C2)c1cnn2cccnc12 [Example 501, N-(1′-(2-fluoroethyl)-6-morpholino-3H-spiro[benzofuran-2,4′-piperidin]-5-yl)pyrazolo[1,5-a]pyrimidine-3-carboxamide]"
8,5.8,"C[C@]1(CC(F)F)Cc2cc(NC(=O)c3cnn4cccnc34)c(N3CCOCC3)cc2O1 [Example 367, N-[(2R)-2-(2,2-difluoroethyl)-2-methyl-6-morpholino-3H-benzofuran-5-yl]pyrazolo[1,5-a]pyrimidine-3-carboxamide]"
9,5.8,"CC1(C)Cc2cc(NC(=O)c3cnn4cccnc34)c(N3CCCC(O)CC3)cc2O1 (stereo not drawn) [Example 185, N-[6-(4-hydroxyazepan-1-yl)-2,2-dimethyl-3H-benzofuran-5-yl]pyrazolo[1,5-a]pyrimidine-3-carboxamide]"
10,5,"C[C@]1(O)COc2cc(N3CCC(C#N)CC3)c(NC(=O)c3cnn4cccnc34)cc2C1 [Example 426, (R)-N-(7-(4-cyanopiperidin-1-yl)-3-hydroxy-3-methylchroman-6-yl)pyrazolo[1,5-a]pyrimidine-3-carboxamide]"
11,4.8,"C[C@@]1(CO)Cc2cc(NC(=O)c3cnn4cccnc34)c(N3CCC4(CC3)CNC(=O)C4)cc2O1 [Example 418, (S)-N-(2-(hydroxymethyl)-2-methyl-6-(3-oxo-2,8-diazaspiro[4.5]decan-8-yl)-2,3-dihydrobenzofuran-5-yl)pyrazolo[1,5-a]pyrimidine-3-carboxamide]"
12,4,"O=C(Nc1cc2c(cc1N1CCOCC1)C(=O)N(CC1CCCCO1)C2)c1cnn2cccnc12 (single isomer, unassigned) [Example 278, N-(6-morpholino-1-oxo-2-((tetrahydro-2H-pyran-2-yl)methyl)isoindolin-5-yl)pyrazolo[1,5-a]pyrimidine-3-carboxamide]"
13,3.9,"Cc1cnc2c(C(=O)Nc3cc4c(cc3N3CCC(CO)CC3)OCCN4)cnn2c1 [Example 7, N-(7-(4-(Hydroxymethyl)piperidin-1-yl)-3,4-dihydro-2H-benzo[b][1,4]oxazin-6-yl)-6-methylpyrazolo[1,5-a]pyrimidine-3-carboxamide]"
14,2.8,"CSCC[C@@]1(C)Cc2cc(NC(=O)c3cnn4cccnc34)c(N3CCOCC3)cc2O1 [Example 444, (R)—N-(2-methyl-2-(2-(methylthio)ethyl)-6-morpholino-2,3-dihydrobenzofuran-5-yl)pyrazolo[1,5-a]pyrimidine-3-carboxamide]"
15,2,"O=C(Nc1cc2c(cc1N1CCOCC1)C(=O)N([C@H]1CC[C@H](O)CC1)C2)c1cnn2cccnc12 [Example 181, N-[2-(4-hydroxycyclohexyl)-6-morpholino-1-oxo-isoindolin-5-yl]pyrazolo[1,5-a]pyrimidine-3-carboxamide]"
16,2,"CC(=O)N1CCC2(CC1)Cc1cc(NC(=O)c3cnn4cccnc34)c(N3CCN(CC(N)=O)CC3)cc1O2 [Example 374, N-(1′-Acetyl-6-(4-(2-amino-2-oxoethyl)piperazin-1-yl)-3H-spiro[benzofuran-2,4′-piperidin]-5-yl)pyrazolo[1,5-a]pyrimidine-3-carboxamide]"
